# Patent US20030095958A1, “Inhibitors of bace” (priority 2001, published 2003)
# Target: BACE (Homo sapiens, UniProt P56817)
# Assay: Ki Determination for the Inhibition of BACE (FS-1 peptide fluorescence cleavage assay)
# Type: biochemical
# Conditions: apparent Ki; 50 nM BACE, 10 μM FS-1 substrate, 0.1M sodium acetate pH 4.5
# Description: Compounds were tested against BACE activity using the following modifications of the method described in J. Ermolieff et al. (2000) Biochemistry 39(51):16263.
# All compound evaluations were performed in 0.1M sodium acetate (buffer), pH, 4.5, 10 μM substrate (FS-1 peptide as described in the reference above; this is commercially available), varying concentrations of the test compound or control (DMSO to yeild 2% vol/vol), and 50 nM BACE. The assay volume is 100 μL.
# Two microliters of the test compound dissolved in DMSO are added to each well in a 96-well microtiter plate. Seventy eight microliters of BACE are mixed with buffer and added to each well then incubated at room temperature for 15 minutes. A stock solution of 50 μM FS-1 substrate was prepared by addition of an aliquot of FS-1 substrate which was dissolved in DMSO to the buffer and mixed well. The reaction is initiated by addition of 20 μL of the FS-1 mix to the remaining, preincubated assay components. The cleavage reaction of substrate to product is measured using a Molecular Devices fluorescence plate reader with the excitation and emission filter pairs of 355 nm and 495 nm, respectively. Apparent Ki values are determined by fitting the data to the integrated equation for competitive tight binding inhibition.
# Sequence of BACE (P56817 46-501): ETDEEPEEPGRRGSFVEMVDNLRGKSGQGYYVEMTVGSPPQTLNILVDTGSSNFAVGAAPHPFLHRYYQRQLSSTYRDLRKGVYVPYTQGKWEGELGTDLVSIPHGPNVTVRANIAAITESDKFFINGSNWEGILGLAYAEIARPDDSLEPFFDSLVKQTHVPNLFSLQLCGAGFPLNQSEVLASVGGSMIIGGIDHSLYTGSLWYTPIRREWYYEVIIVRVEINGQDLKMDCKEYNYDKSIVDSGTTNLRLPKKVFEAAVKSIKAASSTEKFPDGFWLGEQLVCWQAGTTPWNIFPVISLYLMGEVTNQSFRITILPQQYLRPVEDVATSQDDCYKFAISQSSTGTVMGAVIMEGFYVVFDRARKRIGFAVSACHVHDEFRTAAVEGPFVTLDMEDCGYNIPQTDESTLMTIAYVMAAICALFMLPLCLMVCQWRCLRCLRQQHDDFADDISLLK
row,Ki,Structure (SMILES)
1,< 3 µM,"Cc1cc(N2CCNCC2)c(NC(=O)c2cccc3ccccc23)cc1-c1ccc(Cl)c(Cl)c1 [Compound 138, Naphthalene-1-carboxylic acid (3′,4′-dichloro-6-methyl-4-piperazin-1-yl-biphenyl-3-yl)-amide]"
2,< 3 µM,"O=C(Nc1cc(-c2ccc(F)c(Cl)c2)ccc1N1CCNCC1)c1cccc2ccccc12 [Compound 104, Naphthalene-1-carboxylic acid (3′-chloro-4′-fluoro-4-piperazin-1-yl-biphenyl-3-yl)-amide]"
3,3 to 30 µM,"O=C(Nc1cc(-c2ccccc2Cl)ccc1N1CCNCC1)c1cccc2ccccc12 [Compound 122, Naphthalene-1-carboxylic acid (2′-chloro-4-piperazin-1-yl-biphenyl-3-yl)-amide]"
4,< 3 µM,"O=C(Nc1cc(-c2ccc(C(F)(F)F)cc2)ccc1N1CCNCC1)c1cccc2ccccc12 [Compound 129, Naphthalene-1-carboxylic acid (4-piperazin-1-yl-4′-trifluoromethyl-biphenyl-3-yl)-amide]"
5,> 30 µM,"COc1ccc2c(c1)c1c(n2Cc2ccc3ccccc3c2)CNCC1 [Compound 503, 6-Methoxy-9-naphthalen-2-ylmethyl-2,3,4,9-tetrahydro-1H-b-carboline]"
6,3 to 30 µM,"FC(F)(F)c1ccc(-c2cc(COc3ccccc3C(F)(F)F)c(C3=CCNCC3)cc2COc2ccccc2C(F)(F)F)cc1 [Compound 338, 4-[4′-Trifluoromethyl-2,5-bis-(2-trifluoromethyl-phenoxymethyl)-biphenyl-4-yl]-1,2,3,6-tetrahydro-pyridine]"
7,3 to 30 µM,O=C(Nc1ccc2ccccc2c1)NC1CNCCC1c1ccc(-c2ccccc2)cc1 (stereo not shown) [Compound 403]
8,3 to 30 µM,"O=C(Nc1cc(COc2ccccc2C(F)(F)F)ccc1N1CCNCC1)c1cccc2ccccc12 [Compound 125, Naphthalene-1-carboxylic acid [2-piperazin-1-yl-5-(2-trifluoromethyl-phenoxymethyl)-phenyl]-amide]"
9,< 3 µM,"Cc1ccccc1-c1ccc(C2=CCNCC2)c(COc2ccccc2C(F)(F)F)c1 [Compound 374, 4-[2′-Methyl-3-(2-trifluoromethyl-phenoxymethyl)-biphenyl-4-yl]-1,2,3,6-tetrahydro-pyridine]"
10,< 3 µM,"O=S(=O)(Nc1cc(C(F)(F)F)ccc1N1CCNCC1)c1ccc(-c2ccc(C(F)(F)F)cc2)cc1 [Compound 171, 4′-Trifluoromethyl-biphenyl-4-sulfonic acid (2-piperazin-1-yl-5-trifluoromethyl-phenyl)-amide]"
11,< 3 µM,"O=C(Nc1cc(-c2ccc(Cl)c(Cl)c2)ccc1N1CCNCC1)c1cccc2ccccc12 [Compound 130, Naphthalene-1-carboxylic acid (3′,4′-dichloro-4-piperazin-1-yl-biphenyl-3-yl)-amide]"
12,< 3 µM,"O=C(c1cccc2ccccc12)n1c2c(c3cc(OCc4ccccc4OC(F)F)ccc31)CCNC2 [Compound 529, [6-(2-Difluoromethoxy-benzyloxy)-1,2,3,4-tetrahydro-b-carbolin-9-yl]-naphthalen-1-yl-methanone]"
13,< 3 µM,"FC(F)(F)c1ccccc1OCc1cccc(COc2ccccc2C(F)(F)F)c1C1=CCNCC1 [Compound 304, 4-[2,6-Bis-(2-trifluoromethyl-phenoxymethyl)-phenyl]-1,2,3,6-tetrahydro-pyridine]"
14,> 30 µM,"O=C(Nc1ccc(OCc2ccccc2)cc1N1CCNCC1)c1cccc2ccccc12 [Compound 156, Naphthalene-1-carboxylic acid (4-benzyloxy-2-piperazin-1-yl-phenyl)-amide]"
15,< 3 µM,"O=C(Nc1ccc(COc2ccccc2C(F)(F)F)cc1N1CCNCC1)c1nccc2ccccc12 [Compound 178, Isoquinoline-1-carboxylic acid [2-piperazin-1-yl-4-(2-trifluoromethyl-phenoxymethyl)-phenyl]-amide]"
16,3 to 30 µM,"COC(=O)c1cc(C2=CCNCC2)c(COc2ccccc2C(F)(F)F)cc1Br [Compound 381, 2-Bromo-5-(1,2,3,6-tetrahydro-pyridin-4-yl)-4-(2-trifluoromethyl-phenoxymethyl)-benzoic acid methyl ester]"
17,3 to 30 µM,"FC(F)(F)c1ccccc1OCc1ccc(COc2ccc(-c3ccccc3)cc2-c2ccccc2)c(C2=CCNCC2)c1 [Compound 326, 4-[2-([1,1′;3′,1′′]Terphenyl-4′-yloxymethyl)-5-(2-trifluoromethyl-phenoxymethyl)-phenyl]-1,2,3,6-tetrahydro-pyridine]"

row,Ki,Structure (SMILES)
1,3 to 30 µM,"O=C(NCC1CNCCC1c1ccc(COc2ccccc2C(F)(F)F)cc1)c1cccc2ccccc12 (stereo not shown) [Compound 221, Naphthalene-1-carboxylic acid {4-[4-(2-trifluoromethyl-phenoxymethyl)-phenyl]-piperidin-3-ylmethyl}-amide]"
2,3 to 30 µM,"FC(F)(F)c1cccc(-c2cc(COc3ccccc3C(F)(F)F)c(C3=CCNCC3)cc2COc2ccccc2C(F)(F)F)c1 [Compound 337, 4-[3′-Trifluoromethyl-2,5-bis-(2-trifluoromethyl-phenoxymethyl)-biphenyl-4-yl]-1,2,3,6-tetrahydro-pyridine]"
3,< 3 µM,"COc1cc(COc2ccc3c(c2)c2c(n3Cc3cccc4ccccc34)CNCC2)cc(OC)c1 [Compound 525, 6-(3,5-Dimethoxy-benzyloxy)-9-naphthalen-1-ylmethyl-2,3,4,9-tetrahydro-1H-b-carboline]"
4,3 to 30 µM,"Cc1ccc(Oc2ccc(N3CCNCC3)c(NC(=O)c3cccc4ccccc34)c2)cc1 [Compound 142, Naphthalene-1-carboxylic acid (2-piperazin-1-yl-5-p-tolyloxy-phenyl)-amide]"
5,< 3 µM,"COc1ccc(-c2cc(COc3ccccc3C(F)(F)F)c(C3=CCNCC3)cc2COc2ccccc2C(F)(F)F)cc1 [Compound 365, 4-[4′-Methoxy-2,5-bis-(2-trifluoromethyl-phenoxymethyl)-biphenyl-4-yl]-1,2,3,6-tetrahydro-pyridine]"
6,> 30 µM,"O=C(O)C1CCCCC1C(=O)NCC1CNCCC1c1ccc(COc2ccccc2C(F)(F)F)cc1 (stereo not shown) [Compound 207, 2-({4-[4-(2-Trifluoromethyl-phenoxymethyl)-phenyl]-piperidin-3-ylmethyl}-carbamoyl)-cyclohexanecarboxylic acid]"
7,< 3 µM,"FC(F)(F)c1ccccc1COc1ccc2c(c1)c1c(n2Cc2cccc3ccccc23)CNCC1 [Compound 505, 9-Naphthalen-1-ylmethyl-6-(2-trifluoromethyl-benzyloxy)-2,3,4,9-tetrahydro-1H-b-carboline]"
8,< 3 µM,"O=C(OCc1cc(C2=CCNCC2)c(COc2ccccc2C(F)(F)F)cc1-c1ccoc1)c1ccncc1 [Compound 390, Isonicotinic acid 2-furan-3-yl-5-(1,2,3,6-tetrahydro-pyridin-4-yl)-4-(2-trifluoromethyl-phenoxymethyl)-benzyl ester]"
9,> 30 µM,"O=C(Nc1ccc2ccccc2c1)C1CNCCc2c1[nH]c1ccccc21 (stereo not shown) [Compound 202, 1,2,3,4,5,6-Hexahydro-azepino[4,5-b]indole-5-carboxylic acid naphthalen-2-ylamide]"
10,3 to 30 µM,"O=C(NCc1cccc2ccccc12)C1CNCCC1c1ccc(COc2ccccc2C(F)(F)F)cc1 (stereo not shown) [Compound 215, 4-[4-(2-Trifluoromethyl-phenoxymethyl)-phenyl]-piperidine-3-carboxylic acid (naphthalen-1-ylmethyl)-amide]"
11,< 3 µM,"CN(C)C(=O)C1CN(c2ccc(-c3ccc(C(F)(F)F)cc3)cc2NCc2ccc3ccccc3c2)CCN1 (stereo not shown) [Compound 195, 4-{3-[(Naphthalen-2-ylmethyl)-amino]-4′-trifluoromethyl-biphenyl-4-yl}-piperazine-2-carboxylic acid dimethylamide]"
12,< 3 µM,"O=C(OCc1ccccc1-c1ccc(C2=CCNCC2)c(COc2ccccc2C(F)(F)F)c1)c1ccccc1 [Compound 379, Benzoic acid 4′-(1,2,3,6-tetrahydro-pyridin-4-yl)-3′-(2-trifluoromethyl-phenoxymethyl)-biphenyl-2-yl methyl ester]"
13,< 3 µM,"FC(F)(F)c1ccccc1OCc1cc(-c2ccccc2Cl)ccc1C1=CCNCC1 [Compound 373, 4-[2′-Chloro-3-(2-trifluoromethyl-phenoxymethyl)-biphenyl-4-yl]-1,2,3,6-tetrahydro-pyridine]"
14,< 3 µM,"O=C(OCc1cc(C2=CCNCC2)c(COc2ccccc2C(F)(F)F)cc1-c1ccoc1)c1cccnc1 [Compound 385, Nicotinic acid 2-furan-3-yl-5-(1,2,3,6-tetrahydro-pyridin-4-yl)-4-(2-trifluoromethyl-phenoxymethyl)-benzyl ester]"
15,< 3 µM,"FC(F)Oc1ccccc1COc1ccc2c(c1)c1c(n2Cc2cccc3ccccc23)CNCC1 [Compound 518, 6-(2-Difluoromethoxy-benzyloxy)-9-naphthalen-1-ylmethyl-2,3,4,9-tetrahydro-1H-b-carboline]"
16,3 to 30 µM,"O=Cc1cc(-c2ccc(N3CCNCC3)c(NC(=O)c3cccc4ccccc34)c2)ccc1F [Compound 105, Naphthalene-1-carboxylic acid (4′-fluoro-3′-formyl-4-piperazin-1-yl-biphenyl-3-yl)-amide]"
17,3 to 30 µM,"O=C(Nc1ccc2ccccc2c1)C1CNCCC1c1ccc(COc2ccccc2C(F)(F)F)cc1 (stereo not shown) [Compound 216, 4-[4-(2-Trifluoromethyl-phenoxymethyl)-phenyl]-piperidine-3-carboxylic acid naphthalen-2-ylamide]"
